# Assay results as given in ChEMBL document CHEMBL5505964, “HDAC/NAMPT dual inhibitors overcome initial drug-resistance in p53-null leukemia cells” (Eur J Med Chem, 2024).
# Legend:
# [1] = target: Nicotinamide phosphoribosyltransferase (Homo sapiens, UniProt P43490); assay: Inhibition of N-terminal GST-tagged human recombinant NAMPT (2 to 491 residues) expressed in Escherichia coli expression system incubated for 30 mins by fluorescence based analysis
# Histone deacetylase 7 = target: T1, Histone deacetylase 7 (Homo sapiens, UniProt Q8WUI4); assay: Inhibition of N-terminal GST-tagged human HDAC7 (518 to end residues) expressed in baculovirus-infected Sf9 cells using Boc-Lys-(trifluoroacetyl)-AMC as substrate preincubated with enzyme for 1 hr followed by substrate addition and measured after 2 hrs by fluorescence analysis
# T1 sequence (Q8WUI4 whole entry): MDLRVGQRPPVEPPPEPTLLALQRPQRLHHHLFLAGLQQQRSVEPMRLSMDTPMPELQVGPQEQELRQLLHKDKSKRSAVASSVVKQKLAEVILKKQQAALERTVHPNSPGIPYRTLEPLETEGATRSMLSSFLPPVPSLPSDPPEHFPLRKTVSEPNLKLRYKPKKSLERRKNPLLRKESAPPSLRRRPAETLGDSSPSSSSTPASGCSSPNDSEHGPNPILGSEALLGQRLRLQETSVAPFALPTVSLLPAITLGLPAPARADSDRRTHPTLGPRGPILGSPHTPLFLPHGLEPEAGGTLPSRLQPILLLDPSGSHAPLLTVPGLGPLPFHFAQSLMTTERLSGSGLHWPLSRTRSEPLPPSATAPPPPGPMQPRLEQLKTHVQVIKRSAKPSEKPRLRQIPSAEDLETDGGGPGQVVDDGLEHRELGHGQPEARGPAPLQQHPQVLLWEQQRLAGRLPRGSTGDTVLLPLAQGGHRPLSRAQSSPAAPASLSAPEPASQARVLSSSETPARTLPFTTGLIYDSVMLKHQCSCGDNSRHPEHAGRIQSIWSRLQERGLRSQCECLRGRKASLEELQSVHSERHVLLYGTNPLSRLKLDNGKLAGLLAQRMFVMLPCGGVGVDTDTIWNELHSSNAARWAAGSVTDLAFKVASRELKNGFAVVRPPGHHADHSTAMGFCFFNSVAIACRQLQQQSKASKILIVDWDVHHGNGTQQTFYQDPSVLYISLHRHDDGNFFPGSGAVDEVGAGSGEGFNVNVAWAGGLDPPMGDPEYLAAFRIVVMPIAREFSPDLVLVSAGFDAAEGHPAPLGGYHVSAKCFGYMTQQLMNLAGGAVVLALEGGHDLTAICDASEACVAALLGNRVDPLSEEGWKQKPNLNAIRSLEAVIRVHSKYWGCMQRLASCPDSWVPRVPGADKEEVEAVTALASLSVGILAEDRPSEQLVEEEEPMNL
# Histone deacetylase 8 = target: T2, Histone deacetylase 8 (Homo sapiens, UniProt Q9BY41); assay: Inhibition of C-terminal His-tagged full length human recombinant HDAC8 (1 to 377 residues) expressed in baculovirus-infected Sf9 cells using Boc-Lys-(trifluoroacetyl)-AMC as substrate preincubated with enzyme for 1 hr followed by substrate addition and measured after 2 hrs by fluorescence analysis
# T2 sequence (Q9BY41 whole entry): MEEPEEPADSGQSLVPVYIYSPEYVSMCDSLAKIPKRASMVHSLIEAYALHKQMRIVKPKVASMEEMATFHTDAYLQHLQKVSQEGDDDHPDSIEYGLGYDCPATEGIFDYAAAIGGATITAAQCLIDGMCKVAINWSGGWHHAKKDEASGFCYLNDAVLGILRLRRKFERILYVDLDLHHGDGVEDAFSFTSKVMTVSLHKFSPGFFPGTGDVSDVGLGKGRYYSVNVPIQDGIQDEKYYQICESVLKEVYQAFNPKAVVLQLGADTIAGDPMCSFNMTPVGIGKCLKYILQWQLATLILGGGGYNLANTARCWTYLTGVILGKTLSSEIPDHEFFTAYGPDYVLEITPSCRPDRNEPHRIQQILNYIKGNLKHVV
# MV4-11 = assay: cells; format: functional, cell-based; settings: Homo sapiens; for GI50: MV4-11, time 48 hrs
# [2] = Cmax in CD-1 male mouse at 5 mg/kg, iv measured for 24 hrs by LC-MS/MS analysis; format: ADME, organism-based; settings: CD-1, mouse, in vivo
# [3] = Plasma clearance in CD-1 male mouse at 5 mg/kg, iv measured for 24 hrs by LC-MS/MS analysis; format: ADME, organism-based; settings: CD-1, mouse
# [4] = target: Histone deacetylase 3/Nuclear receptor corepressor 2 (HDAC3/NCoR2) (Homo sapiens, UniProt O15379); assay: Inhibition of C-terminal His-tagged human HDAC3 (1 to 428 residues)/N-terminal GST tagged human NCOR2 (395 to 489 residues) expressed in baculovirus-infected Sf9 cells using Boc-Lys-(acetyl)-AMC as substrate preincubated with enzyme for 1 hr followed by substrate addition and measured after 2 hrs by fluorescence analysis
# [5] = AUC (0 to infinity) in CD-1 male mouse at 5 mg/kg, iv by LC-MS/MS analysis; format: ADME, organism-based; settings: CD-1, mouse, in vivo
# [6] = Half life in CD-1 male mouse at 5 mg/kg, iv measured for 24 hrs by LC-MS/MS analysis; format: ADME, organism-based; settings: CD-1, mouse, in vivo
# Chain of Histone deacetylase 3/Nuclear receptor corepressor 2 (HDAC3/NCoR2) (O15379 whole entry, the tested form may be a part): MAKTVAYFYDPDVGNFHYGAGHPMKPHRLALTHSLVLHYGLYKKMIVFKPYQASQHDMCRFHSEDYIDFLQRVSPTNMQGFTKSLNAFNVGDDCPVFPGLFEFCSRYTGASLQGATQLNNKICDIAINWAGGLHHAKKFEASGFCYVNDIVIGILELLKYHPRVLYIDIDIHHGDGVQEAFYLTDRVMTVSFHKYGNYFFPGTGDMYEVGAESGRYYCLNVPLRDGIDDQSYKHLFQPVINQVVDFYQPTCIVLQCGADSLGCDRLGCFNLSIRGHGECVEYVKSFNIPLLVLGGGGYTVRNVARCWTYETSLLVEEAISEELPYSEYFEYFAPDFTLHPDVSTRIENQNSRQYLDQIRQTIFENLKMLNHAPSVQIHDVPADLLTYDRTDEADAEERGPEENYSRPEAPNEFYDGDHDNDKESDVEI
# Chain of Histone deacetylase 3/Nuclear receptor corepressor 2 (HDAC3/NCoR2) (Q9Y618 whole entry, further chain, the tested form may be a part): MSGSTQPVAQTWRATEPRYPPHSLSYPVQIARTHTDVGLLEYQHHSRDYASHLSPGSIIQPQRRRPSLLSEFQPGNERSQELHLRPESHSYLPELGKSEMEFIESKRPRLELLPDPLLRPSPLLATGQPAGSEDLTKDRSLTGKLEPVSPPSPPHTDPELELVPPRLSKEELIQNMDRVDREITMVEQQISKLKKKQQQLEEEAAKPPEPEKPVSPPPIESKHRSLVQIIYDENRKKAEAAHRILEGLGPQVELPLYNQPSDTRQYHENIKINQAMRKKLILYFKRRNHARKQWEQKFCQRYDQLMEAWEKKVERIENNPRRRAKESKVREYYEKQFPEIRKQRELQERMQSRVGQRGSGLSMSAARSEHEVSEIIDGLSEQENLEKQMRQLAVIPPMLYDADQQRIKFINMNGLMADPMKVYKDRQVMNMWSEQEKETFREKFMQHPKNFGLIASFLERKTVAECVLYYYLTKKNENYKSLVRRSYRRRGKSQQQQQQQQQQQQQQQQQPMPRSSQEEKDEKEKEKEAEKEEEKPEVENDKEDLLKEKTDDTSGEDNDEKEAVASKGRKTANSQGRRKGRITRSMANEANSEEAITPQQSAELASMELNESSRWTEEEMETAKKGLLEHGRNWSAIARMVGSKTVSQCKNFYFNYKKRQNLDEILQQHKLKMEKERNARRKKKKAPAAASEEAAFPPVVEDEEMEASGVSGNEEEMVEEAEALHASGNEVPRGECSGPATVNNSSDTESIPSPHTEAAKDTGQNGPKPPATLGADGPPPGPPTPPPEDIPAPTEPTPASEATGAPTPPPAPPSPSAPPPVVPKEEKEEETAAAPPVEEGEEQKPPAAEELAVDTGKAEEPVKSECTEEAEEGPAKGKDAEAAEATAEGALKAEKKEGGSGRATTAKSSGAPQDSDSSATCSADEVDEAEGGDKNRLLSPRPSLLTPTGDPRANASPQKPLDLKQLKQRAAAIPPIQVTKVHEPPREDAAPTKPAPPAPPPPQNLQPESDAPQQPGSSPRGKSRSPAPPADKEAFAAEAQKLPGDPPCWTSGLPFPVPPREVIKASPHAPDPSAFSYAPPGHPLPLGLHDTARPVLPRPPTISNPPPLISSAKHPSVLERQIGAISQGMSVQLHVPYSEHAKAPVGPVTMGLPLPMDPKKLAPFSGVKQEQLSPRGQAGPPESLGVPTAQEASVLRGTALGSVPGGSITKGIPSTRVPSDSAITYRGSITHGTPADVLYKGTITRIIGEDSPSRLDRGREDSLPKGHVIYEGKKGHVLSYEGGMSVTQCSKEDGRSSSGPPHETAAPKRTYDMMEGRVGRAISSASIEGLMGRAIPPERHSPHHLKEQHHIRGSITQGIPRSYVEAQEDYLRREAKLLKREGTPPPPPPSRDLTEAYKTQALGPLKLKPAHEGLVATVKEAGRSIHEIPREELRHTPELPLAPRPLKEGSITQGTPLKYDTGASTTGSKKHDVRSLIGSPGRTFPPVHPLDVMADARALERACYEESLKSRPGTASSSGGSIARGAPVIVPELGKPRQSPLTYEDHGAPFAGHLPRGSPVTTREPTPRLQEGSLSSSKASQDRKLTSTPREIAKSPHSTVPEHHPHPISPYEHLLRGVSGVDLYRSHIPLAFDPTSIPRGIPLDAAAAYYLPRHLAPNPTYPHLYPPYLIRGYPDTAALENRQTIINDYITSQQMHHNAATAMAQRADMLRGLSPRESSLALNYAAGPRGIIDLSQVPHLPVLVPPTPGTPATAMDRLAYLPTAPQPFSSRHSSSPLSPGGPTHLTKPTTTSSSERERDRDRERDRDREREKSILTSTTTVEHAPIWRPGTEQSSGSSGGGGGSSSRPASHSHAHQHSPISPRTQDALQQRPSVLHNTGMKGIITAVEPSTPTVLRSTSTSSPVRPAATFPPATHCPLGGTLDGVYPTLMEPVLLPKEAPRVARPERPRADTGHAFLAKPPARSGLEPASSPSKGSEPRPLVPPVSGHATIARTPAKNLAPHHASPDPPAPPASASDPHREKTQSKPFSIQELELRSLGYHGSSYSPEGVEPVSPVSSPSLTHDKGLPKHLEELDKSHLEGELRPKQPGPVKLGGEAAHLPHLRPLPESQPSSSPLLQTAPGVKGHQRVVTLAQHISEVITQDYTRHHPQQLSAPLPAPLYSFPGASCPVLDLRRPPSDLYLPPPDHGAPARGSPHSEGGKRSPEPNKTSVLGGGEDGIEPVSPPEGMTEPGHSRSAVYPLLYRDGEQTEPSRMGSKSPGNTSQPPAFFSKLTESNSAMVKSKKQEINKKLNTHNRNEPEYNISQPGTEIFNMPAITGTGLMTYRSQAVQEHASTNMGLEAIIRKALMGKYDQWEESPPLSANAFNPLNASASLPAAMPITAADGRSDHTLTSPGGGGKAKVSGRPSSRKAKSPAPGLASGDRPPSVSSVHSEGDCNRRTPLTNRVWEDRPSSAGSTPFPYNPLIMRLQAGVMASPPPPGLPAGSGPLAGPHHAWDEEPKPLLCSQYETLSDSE
# Chain of Nicotinamide phosphoribosyltransferase (P43490 whole entry, the tested form may be a part): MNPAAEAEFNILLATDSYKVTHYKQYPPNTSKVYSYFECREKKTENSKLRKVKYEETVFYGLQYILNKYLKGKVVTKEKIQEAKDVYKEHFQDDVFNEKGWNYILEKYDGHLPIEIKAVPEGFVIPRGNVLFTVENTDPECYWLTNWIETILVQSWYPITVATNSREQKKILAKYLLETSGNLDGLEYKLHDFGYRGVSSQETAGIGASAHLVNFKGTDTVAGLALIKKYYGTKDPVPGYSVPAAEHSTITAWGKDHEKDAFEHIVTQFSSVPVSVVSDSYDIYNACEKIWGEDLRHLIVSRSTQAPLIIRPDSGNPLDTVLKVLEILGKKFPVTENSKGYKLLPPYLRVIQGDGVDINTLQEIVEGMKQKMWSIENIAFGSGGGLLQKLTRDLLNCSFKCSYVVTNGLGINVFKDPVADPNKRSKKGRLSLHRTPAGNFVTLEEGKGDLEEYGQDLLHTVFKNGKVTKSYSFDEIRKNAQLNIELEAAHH
SMILES,IC50 [1],IC50 (Histone deacetylase 7),IC50 (Histone deacetylase 8),"IC50 (MV4-11; MV4-11, 48 h)",GI50 (MV4-11),Cmax [2],clearance [3],IC50 [4],AUC(0-inf) [5],half-life [6]
CCCNNC(=O)c1ccc(CNC(=O)/C=C/c2cccnc2)cc1,1660 nM,> 10000 nM,> 10000 nM,60.8 nM,38.3 nM,–,–,–,–,–
CCCNNC(=O)c1ccc(CNC(=O)c2cc3cnccc3[nH]2)cc1,–,> 10000 nM,> 10000 nM,–,23.6 nM,11700 ng/mL,25.1 mL/min/kg,0.72 nM,3360 ng·h/mL,9.19 h
